Source: patent US20220226283A1, “COMBINATION PRODUCT CONTAINING LIMONOID COMPOUND AND DPP-4 INHIBITOR” (ZHEJIANG YANGSHENGTANG INSTITUTE OF NATURAL MEDICATION CO., …, priority 2019, published 2022)

Test system: mouse model of type II diabetes with pancreatic islet damage and obesity (ICR mice, STZ and high-fat diet)
Assay: Blood glucose in mouse type II diabetes model with pancreatic islet damage and obesity (limonoid compound, alogliptin or combination)
Assay type: in vivo
Details: single administration 0.5 g/kg per day by gavage, two weeks, 1 h after the last administration, mean ± SD
Source text: In this example, a mouse model of type II diabetes with pancreatic islet damage and obesity was established by multiple modeling ICR mice with a small dose of streptozotocin (STZ), following with continuous high-fat diets (referring to literature: Zhang Jiyuan et al, Study on the effect of three plant extracts on improving glucose and lipid metabolism in type 2 diabetic mice, Food and Machinery, 2016, 32 (12): 142-147). […]
Experimental grouping: 15 male mice were randomly selected as the normal control group, and the remaining mice were subjected to a high-fat diet (high-fat diet formula: cholesterol 1%, egg yolk powder 10%, lard oil 10%, and basic feed 79%, for establishing an obesity mouse model) for consecutive 4 weeks and intraperitoneal injection of STZ at a dose of 35 mg/kg for three consecutive days. After one week, the mice were subject to 24 hours of fasting and water deprivation, their fasting blood glucose was measured, and the mice with a blood glucose level of 15 to 25 mmol/L were selected and undifferentiatedly grouped and used in the experiment, continuously subjected to the high-fat diet, 15 mice in each group, and subjected to blood sampling and detection of indicators after 2 weeks of administration. […]

For Cn1c(=O)cc(N2CCC[C@@H](N)C2)n(Cc2ccccc2C#N)c1=O [Alogliptin, alogliptin], the Blood glucose value was 14.5 ± 2.8 mmol/L.
